In paper PMC8157534 (ACS Nano, 2021):

Biological target: TmrAB (Thermus thermophilus, UniProt Q72J04+Q72J05)
Settings: 2 mM Mg-ATP, 2 mM MgCl2, pH 7.5, 0.2% DDM, 40 °C, 8 min

TmrAB, sequence (Q72J05 1-600): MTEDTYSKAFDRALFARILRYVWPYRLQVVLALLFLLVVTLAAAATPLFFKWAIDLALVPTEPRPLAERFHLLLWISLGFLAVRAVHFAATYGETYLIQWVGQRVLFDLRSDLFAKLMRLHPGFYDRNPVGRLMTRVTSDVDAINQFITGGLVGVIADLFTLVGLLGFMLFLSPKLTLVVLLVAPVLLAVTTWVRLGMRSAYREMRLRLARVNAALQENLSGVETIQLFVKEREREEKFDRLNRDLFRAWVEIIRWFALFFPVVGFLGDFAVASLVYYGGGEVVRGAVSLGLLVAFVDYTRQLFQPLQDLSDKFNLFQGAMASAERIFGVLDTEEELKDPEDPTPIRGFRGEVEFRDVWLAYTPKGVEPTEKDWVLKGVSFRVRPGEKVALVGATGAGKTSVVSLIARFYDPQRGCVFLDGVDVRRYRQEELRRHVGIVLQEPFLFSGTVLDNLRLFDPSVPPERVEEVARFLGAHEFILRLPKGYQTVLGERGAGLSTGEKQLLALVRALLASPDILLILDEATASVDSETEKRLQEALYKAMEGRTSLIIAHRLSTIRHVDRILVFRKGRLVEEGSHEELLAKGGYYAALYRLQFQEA
TmrAB, sequence (Q72J04 1-578): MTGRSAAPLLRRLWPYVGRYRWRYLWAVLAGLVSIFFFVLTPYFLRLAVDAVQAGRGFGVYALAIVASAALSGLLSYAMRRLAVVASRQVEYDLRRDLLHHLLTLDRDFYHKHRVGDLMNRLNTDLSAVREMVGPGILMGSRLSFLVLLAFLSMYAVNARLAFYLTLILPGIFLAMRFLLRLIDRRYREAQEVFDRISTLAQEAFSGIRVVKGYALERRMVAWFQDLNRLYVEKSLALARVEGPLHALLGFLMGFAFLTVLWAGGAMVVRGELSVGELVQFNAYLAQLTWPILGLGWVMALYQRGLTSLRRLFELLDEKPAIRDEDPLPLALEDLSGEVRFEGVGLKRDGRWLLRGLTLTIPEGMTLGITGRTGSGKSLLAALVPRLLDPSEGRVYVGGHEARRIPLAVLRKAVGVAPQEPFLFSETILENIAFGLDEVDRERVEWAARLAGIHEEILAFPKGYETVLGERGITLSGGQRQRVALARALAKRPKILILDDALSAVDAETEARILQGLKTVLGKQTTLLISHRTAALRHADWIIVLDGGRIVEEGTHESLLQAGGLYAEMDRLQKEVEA

Nc1ncnc2c1ncn2[C@@H]1O[C@H](COP(=O)(O)OP(=O)(O)OP(=O)(O)O)[C@@H](O)[C@H]1O [ATP]
ATPase activity: A high ATPase activity above background demonstrated TmrAB function (Figure 1c)
